# Patent US12084472B2 (Ardelyx, Inc., priority 2015, dated 2024)
# Molecular target: T1, human TGR5 (Homo sapiens, UniProt Q8TDU6)
# T1 construct: expressed in transfected cells; host or cells: HEK293
# T1 sequence (Q8TDU6 1-330): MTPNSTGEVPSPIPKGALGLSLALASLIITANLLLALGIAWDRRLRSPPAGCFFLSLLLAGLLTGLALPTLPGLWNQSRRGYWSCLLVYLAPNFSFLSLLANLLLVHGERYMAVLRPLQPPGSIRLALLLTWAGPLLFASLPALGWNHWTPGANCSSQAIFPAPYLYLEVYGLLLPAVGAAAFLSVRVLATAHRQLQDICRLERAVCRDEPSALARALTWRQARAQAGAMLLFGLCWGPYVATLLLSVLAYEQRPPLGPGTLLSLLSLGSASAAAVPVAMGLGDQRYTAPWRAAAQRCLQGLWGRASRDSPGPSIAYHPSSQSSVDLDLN
# Assay: Cell-based TGR5 assay (cAMP generation, HTRF)
# Details: HEK293 cells stably transfected with human TGR5; cAMP by HTRF; 30 minutes at 37° C.; read-out: pEC50 Human TGR5 (converted)
# Outline: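 First, compounds in 3-fold serial dilution were placed in HBSS with 10 mM HEPES pH 7.4 and 0.5 mM IBMX. Next, human TGR5-expressing HEK293 cells were added and incubated 30 min at 37° C. Finally, cAMP was detected by HTRF and pEC50 derived by logistic fitting.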
row,EC50,Compound
1,< 100 nM,"CCN(CCCCNC(=O)NC[C@H](O)[C@@H](O)[C@H](O)[C@H](O)CO)S(=O)(=O)c1ccc(Cl)c(CNC2(c3cnccc3-c3ccccc3OC3CC3)CC2)c1 [Compound I-473, 1-(4-{N-ethyl4-chloro-3-[({1-[4-(2-cyclopropoxyphenyl)pyridin-3-yl]cyclopropyl}amino)methyl]benzenesulfonamido}butyl)-3-[(2S,3R,4R,5R)-2,3,4,5,6-pentahydroxyhexyl]urea]"
2,< 100 nM,"CN(CCCCNC(=O)NC[C@H](O)[C@@H](O)[C@H](O)[C@H](O)CO)S(=O)(=O)c1cc(CNC2(c3cnccc3-c3ccccc3OC3CC3)CC2)c(Cl)cc1F [Compound I-474, 1-(4-{N-methyl4-chloro-5-[({1-[4-(2-cyclopropoxyphenyl)pyridin-3-yl]cyclopropyl}amino)methyl]-2-fluorobenzenesulfonamido}butyl)-3-[(2S,3R,4R,5R)-2,3,4,5,6-pentahydroxyhexyl]urea]"
3,< 100 nM,"CN(CCCCNC(=O)N[C@@H](CO)[C@@H](O)[C@H](O)[C@H](O)CO)S(=O)(=O)c1cc(CNC2(c3cnccc3-c3ccccc3OC3CC3)CC2)c(Cl)cc1F [Compound I-475, 1-(4-{N-methyl4-chloro-5-[({1-[4-(2-cyclopropoxyphenyl)pyridin-3-yl]cyclopropyl}amino)methyl]-2-fluorobenzenesulfonamido}butyl)-3-[(2S,3R,4S,5R)-1,3,4,5,6-pentahydroxyhexan-2-yl]urea]"
4,126 to 1000 nM,"CN(CCCCNC(=O)N[C@@H](CO)[C@@H](O)[C@H](O)[C@H](O)CO)S(=O)(=O)c1cc(CNC2(c3cnccc3-c3ccccc3OC3CC3)CC2)c(Cl)cc1Cl [Compound I-476, 1-(4-{N-methyl2,4-dichloro-5-[({1-[4-(2-cyclopropoxyphenyl)pyridin-3-yl]cyclopropyl}amino)methyl]benzenesulfonamido}butyl)-3-[(2S,3R,4S,5R)-1,3,4,5,6-pentahydroxyhexan-2-yl]urea]"
5,< 100 nM,"Cc1ccc(S(=O)(=O)N(C)CCCCNC(=O)NC[C@H](O)[C@@H](O)[C@H](O)[C@H](O)CO)cc1CNC1(c2cnccc2-c2ccccc2OC2CC2)CC1 [Compound I-477, 1-(4-{N-methyl3-[({1-[4-(2-cyclopropoxyphenyl)pyridin-3-yl]cyclopropyl}amino)methyl]-4-methylbenzenesulfonamido}butyl)-3-[(2S,3R,4R,5R)-2,3,4,5,6-pentahydroxyhexyl]urea]"
6,< 100 nM,"Cc1ccc(S(=O)(=O)N(C)CCCCNC(=O)N[C@@H](CO)[C@@H](O)[C@H](O)[C@H](O)CO)cc1CNC1(c2cnccc2-c2ccccc2OC2CC2)CC1 [Compound I-478, 1-(4-{N-methyl3-[({1-[4-(2-cyclopropoxyphenyl)pyridin-3-yl]cyclopropyl}amino)methyl]-4-methylbenzenesulfonamido}butyl)-3-[(2S,3R,4S,5R)-1,3,4,5,6-pentahydroxyhexan-2-yl]urea]"
7,< 100 nM,"Cc1ccc(S(=O)(=O)N(C)CCCCNC(=O)NC[C@H](O)[C@@H](O)[C@H](O)[C@H](O)CO)cc1COC1(c2cnccc2-c2ccccc2OC2CC2)CC1 [Compound I-479, 1-{4-[N-methyl3-({1-[4-(2-cyclopropoxyphenyl)pyridin-3-yl]cyclopropoxy}methyl)-4-methylbenzenesulfonamido]butyl}-3-[(2S,3R,4R,5R)-2,3,4,5,6-pentahydroxyhexyl]urea]"
8,< 100 nM,"O=C(NCC(O)C(O)C(O)C(O)CO)N[C@@H](CCCNS(=O)(=O)c1ccc(Cl)c(COC2(c3cnccc3-c3ccccc3OC3CC3)CC2)c1)C(=O)O (stereo partly drawn) [Compound I-480, (2S)-5-[4-chloro-3-({1-[4-(2-cyclopropoxyphenyl)pyridin-3-yl]cyclopropoxy}methyl)benzenesulfonamido]-2-{[(2,3,4,5,6-pentahydroxyhexyl)carbamoyl]amino}pentanoic acid]"
9,< 100 nM,"CCNC(=O)[C@H](N)CCCCNS(=O)(=O)c1ccc(Cl)c(COC2(c3cnccc3-c3ccccc3OC3CC3)CC2)c1 [Compound I-481, (2R)-2-amino-6-[4-chloro-3-({1-[4-(2-cyclopropoxyphenyl)pyridin-3-yl]cyclopropoxy}methyl)benzenesulfonamido]-N-ethylhexanamide]"
10,126 to 1000 nM,"CCNC(=O)[C@@H](CCCCNS(=O)(=O)c1ccc(Cl)c(COC2(c3cnccc3-c3ccccc3OC3CC3)CC2)c1)NC(=O)NC[C@H](O)[C@@H](O)[C@H](O)[C@H](O)CO [Compound I-482, (2R)-6-[4-chloro-3-({1-[4-(2-cyclopropoxyphenyl)pyridin-3-yl]cyclopropoxy}methyl)benzenesulfonamido]-N-ethyl-2-({[(2S,3R,4R,5R)-2,3,4,5,6-pentahydroxyhexyl]carbamoyl}amino)hexanamide]"
11,126 to 1000 nM,"O=C(NCCCC[C@H](NS(=O)(=O)c1ccc(Cl)c(COC2(c3cnccc3-c3ccccc3OC3CC3)CC2)c1)C(=O)O)NC[C@H](O)[C@@H](O)[C@H](O)[C@H](O)CO [Compound I-483, (2S)-2-[4-chloro-3-({1-[4-(2-cyclopropoxyphenyl)pyridin-3-yl]cyclopropoxy}methyl)benzenesulfonamido]-6-({[(2S,3R,4R,5R)-2,3,4,5,6-pentahydroxyhexyl]carbamoyl}amino)hexanoic acid]"
12,< 100 nM,"N[C@@H](CCCCNS(=O)(=O)c1ccc(COC2(c3cnccc3-c3ccccc3OC3CC3)CC2)c(Cl)c1)C(=O)O [Compound I-484, (S)-2-amino-6-(3-chloro-4-((1-(4-(2-cyclopropoxyphenyl)pyridine-3-yl)cyclopropoxy)methyl)phenylsulfonamido)hexanoic acid]"
13,< 100 nM,"O=C(NC[C@H](O)[C@@H](O)[C@H](O)[C@H](O)CO)N[C@@H](CCCCNS(=O)(=O)c1ccc(COC2(c3cnccc3-c3ccccc3OC3CC3)CC2)c(Cl)c1)C(=O)O [Compound I-485, (S)-6-(3-chloro-4-((1-(4-(2-cyclopropoxyphenyl)pyridine-3-yl)cyclopropoxy)methyl)phenylsulfonamido)-2-(3-((2S,3R,4R,5R)-2,3,4,5,6-pentahydroxyhexyl)ureido) hexanoic acid]"
14,126 to 1000 nM,"CCNC(=O)[C@@H](N)CCCCNS(=O)(=O)c1ccc(COC2(c3cnccc3-c3ccccc3OC3CC3)CC2)c(Cl)c1 [Compound I-486, (S)-2-amino-6-(3-chloro-4-((1-(4-(2-cyclopropoxyphenyl)pyridin-3-yl)cyclopropoxy)methyl)phenylsulfonamido)-N-ethylhexanamide]"
15,126 to 1000 nM,CCNC(=O)[C@H](CCCCNS(=O)(=O)c1ccc(Cl)c(COC2(c3cnccc3-c3ccccc3OC3CC3)CC2)c1)NC(=O)NC[C@H](O)[C@@H](O)[C@H](O)[C@H](O)CO [Compound I-487]
16,< 100 nM,"O=C(NCCCCCSc1ccc(Cl)c(COC2(c3cnccc3-c3ccccc3OC3CC3)CC2)c1)NC[C@H](O)[C@@H](O)[C@H](O)[C@H](O)CO [Compound I-488, 1-(5-[[4-Chloro-3-([1-[4-(2-cyclopropoxyphenyl)pyridin-3-yl]cyclopropoxy]methyl)phenyl]sulfanyl]pentyl)-3-[(2S,3R,4R,5R)-2,3,4,5,6-pentahydroxyhexyl]urea]"
17,< 100 nM,"O=C([C@@H](O)[C@@H](O)[C@H](O)[C@@H](O)CO)N(CCCCCSc1ccc(Cl)c(COC2(c3cnccc3-c3ccccc3OC3CC3)CC2)c1)CCOCCO [Compound I-489, (2S,3S,4R,5S)-N-(5-[[4-chloro-3-([1-[4-(2-cyclopropoxyphenyl)pyridin-3-yl]cyclopropoxy]methyl)phenyl]sulfanyl]pentyl)-2,3,4,5,6-pentahydroxy-N-[2-(2-hydroxyethoxy)ethyl]hexanamide]"
18,< 100 nM,"O=C(NCCOCCSc1ccc(Cl)c(COC2(c3cnccc3-c3ccccc3OC3CC3)CC2)c1)NC[C@H](O)[C@@H](O)[C@H](O)[C@H](O)CO [Compound I-490, 1-[2-(2-[[4-Chloro-3-([1-[4-(2-cyclopropoxyphenyl)pyridin-3-yl]cyclopropoxy]methyl)phenyl]sulfanyl]ethoxy)ethyl]-3-[(2S,3R,4R,5R)-2,3,4,5,6-pentahydroxyhexyl]urea]"
19,126 to 1000 nM,"O=C(NCCOCC[S+]([O-])c1ccc(Cl)c(COC2(c3cnccc3-c3ccccc3OC3CC3)CC2)c1)NC[C@H](O)[C@@H](O)[C@H](O)[C@H](O)CO (stereo partly drawn) [Compound I-491, 1-[2-(2-[[4-chloro-3-([1-[4-(2-cyclopropoxyphenyl)pyridin-3-yl]cyclopropoxy]methyl)benzene]sulfinyl]ethoxy)ethyl]-3-[(2S,3R,4R,5R)-2,3,4,5,6-pentahydroxyhexyl]urea]"
20,< 100 nM,"O=C(NCCOCCS(=O)(=O)c1ccc(Cl)c(COC2(c3cnccc3-c3ccccc3OC3CC3)CC2)c1)NC[C@H](O)[C@@H](O)[C@H](O)[C@H](O)CO [Compound I-492, 1-[2-(2-[[4-Chloro-3-([l-[4-(2-cyclopropoxyphenyl)pyridin-3-yl]cyclopropoxy]methyl)benzene]sulfonyl]ethoxy)ethyl]-3-[(2S,3R,4R,5R)-2,3,4,5,6-pentahydroxyhexyl]urea]"
21,< 100 nM,"O=C(NCCOCCSc1ccc(Cl)c(COC2(c3cnccc3-c3ccccc3OC3COC3)CC2)c1)NC[C@H](O)[C@@H](O)[C@H](O)[C@H](O)CO [Compound I-493, 1-(2-(2-(4-Chloro-3-((1-(4-(2-(oxetan-3-yloxy)phenyl)pyridin-3-yl)cyclopropoxy)methyl)phenylthio)ethoxy)ethyl)-3-((2S,3R,4R,5R)-2,3,4,5,6-pentahydroxyhexyl)urea]"
